In PubChem BioAssay AID330 (DTP/NCI, 2004):
Where “and” joins values, the source holds several entries; their conditions need not be identical. Equal values may be shown once. Inconclusive results and toxic doses are left out.

Test system: P388 leukemia ip, CD2F1 mice, survival T/C
Experiment: NCI In Vivo Anticancer Drug Screen. Data for tumor model P388 Leukemia (intraperitoneal) in CD2F1 (CDF1) mice
Settings: endpoint: median survival time, higher = longer survival
Outline: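 Mice carrying the transplanted tumor received test compound or vehicle. Survival was recorded in each group, and the value is the treated-group measurement divided by that of the vehicle-treated control group.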

[1] = dose: 50.0 mg/kg/injection, schedule: Q01DX009 (ip), vehicle: Klucel (hydroxypropylcellulose) (HPC)
[2] = dose: 100.0 mg/kg/injection, schedule: Q01DX009 (ip), vehicle: Klucel (hydroxypropylcellulose) (HPC)
[3] = dose: 200.0 mg/kg/injection, schedule: Q01DX009 (ip), vehicle: Klucel (hydroxypropylcellulose) (HPC)
[4] = dose: 50.0 mg/kg/injection, schedule: Q01DX005 (ip), vehicle: saline with Tween-80
[5] = dose: 100.0 mg/kg/injection, schedule: Q01DX005 (ip), vehicle: saline with Tween-80
[6] = dose: 200.0 mg/kg/injection, schedule: Q01DX005 (ip), vehicle: saline with Tween-80
[7] = dose: 50.0 mg/kg/injection, schedule: Q01DX005 (ip), vehicle: saline
[8] = dose: 100.0 mg/kg/injection, schedule: Q01DX005 (ip), vehicle: saline
[9] = dose: 200.0 mg/kg/injection, schedule: Q01DX005 (ip), vehicle: saline
[10] = dose: 60.0 mg/kg/injection, schedule: Q01DX005 (ip), vehicle: saline with Tween-80
[11] = dose: 120.0 mg/kg/injection, schedule: Q01DX005 (ip), vehicle: saline with Tween-80
[12] = dose: 240.0 mg/kg/injection, schedule: Q01DX005 (ip), vehicle: saline with Tween-80
[13] = dose: 25.0 mg/kg/injection, schedule: Q01DX009 (ip), vehicle: saline with Tween-80
[14] = dose: 50.0 mg/kg/injection, schedule: Q01DX009 (ip), vehicle: saline with Tween-80
[15] = dose: 100.0 mg/kg/injection, schedule: Q01DX009 (ip), vehicle: saline with Tween-80
[16] = dose: 6.25 mg/kg/injection, schedule: Q01DX009 (ip), vehicle: saline
[17] = dose: 50.0 mg/kg/injection, schedule: Q01DX009 (ip), vehicle: saline
[18] = dose: 50.0 mg/kg/injection, schedule: Q01DX009 (ip), vehicle: suspension in saline

With CCOC(=O)NC(=O)c1c(C)oc(C)cc1=O the T/C [1] was 118 % of control, the T/C [2] was 115 % of control and the T/C [3] was 107 % of control.

With CCOC(=O)C1(C(=O)O)CCCN(C(=O)OCc2ccccc2)C1Cc1ccccc1 (configuration not stated) the T/C (dose: 100.0 mg/kg/injection, schedule: Q01DX001 (ip), vehicle: Klucel (hydroxypropylcellulose) (HPC)) was 99 % of control, the T/C (dose: 200.0 mg/kg/injection, schedule: Q01DX001 (ip), vehicle: Klucel (hydroxypropylcellulose) (HPC)) was 102 % of control and the T/C (dose: 400.0 mg/kg/injection, schedule: Q01DX001 (ip), vehicle: Klucel (hydroxypropylcellulose) (HPC)) was 93 % of control.

With Nc1[nH]c(=O)nc2sc3ccccc3c12 the T/C [4] was 102 % of control, the T/C [5] was 105 % of control and the T/C [6] was 102 % of control.

c1ccc2c3c(ccc2c1)OCCOCCOc1ccc2ccccc2c1-c1c(ccc2ccccc12)OCCOCCOc1ccc2ccccc2c1-3 was tested, and the T/C (dose: 100.0 mg/kg/injection, schedule: Q04DX002 (ip), vehicle: saline with Tween-80) was 96 % of control, the T/C (dose: 200.0 mg/kg/injection, schedule: Q04DX002 (ip), vehicle: saline with Tween-80) was 89 % of control and the T/C (dose: 400.0 mg/kg/injection, schedule: Q04DX002 (ip), vehicle: saline with Tween-80) was 91 % of control.

Nc1noc(N)n1 was tested, and the T/C [7] was 107 % of control, the T/C [8] was 110 % of control and the T/C [9] was 124 % of control.

With COc1cc2c(cc1OC)C(=O)c1ncccc1C2=O the T/C (dose: 12.5 mg/kg/injection, schedule: Q01DX009 (ip), vehicle: other) was 104 % of control, the T/C (dose: 25.0 mg/kg/injection, schedule: Q01DX009 (ip), vehicle: other) was 100 % of control and the T/C (dose: 50.0 mg/kg/injection, schedule: Q01DX009 (ip), vehicle: other) was 99 % of control. The T/C (dose: 100.0 mg/kg/injection, schedule: Q01DX009 (ip), vehicle: other) was 90 % of control and the T/C (dose: 200.0 mg/kg/injection, schedule: Q01DX009 (ip), vehicle: other) was 89 % of control.

COc1ccc2nc(NC(=O)C(=O)C(C)C(=O)c3ccc(Cl)cc3)sc2c1 (configuration not stated) was tested, and the T/C [10] was 108 % of control, the T/C [11] was 98 % of control and the T/C [12] was 105 % of control.

In the case of C=C(CN(C)C)C(=O)c1ccccc1Cl, the T/C (dose: 1.8 mg/kg/injection, schedule: Q01DX005 (ip), vehicle: saline) is reported as 109 % of control, the T/C (dose: 3.75 mg/kg/injection, schedule: Q01DX005 (ip), vehicle: saline) is reported as 106 % of control and the T/C (dose: 7.5 mg/kg/injection, schedule: Q01DX005 (ip), vehicle: saline) is reported as 105 % of control and 107 % of control.

In the case of CC1(C)OC(=O)C2(O1)C(=O)C1CCCCC12C (configuration not stated), the T/C [10] is reported as 100 % of control, the T/C [11] is reported as 95 % of control and the T/C [12] is reported as 95 % of control.

With Nc1nc(N)c2nc(CCc3ccc(C(=O)NC(CCC(=O)O)C(=O)O)cc3)cnc2n1 (configuration not stated) the T/C (dose: 1.5 mg/kg/injection, schedule: Q01DX009 (ip), vehicle: sodium bicarbonate) was 171 % of control, the T/C (dose: 1.75 mg/kg/injection, schedule: Q01DX009 (ip), vehicle: sodium bicarbonate) was 204 % of control and the T/C (dose: 2.0 mg/kg/injection, schedule: Q01DX009 (ip), vehicle: sodium bicarbonate) was 214 % of control.

For O=C(O)C(O)C(O)C1[O][Sb]([c]2ccc([N+](=O)[O-])cc2)[O]C1CO (configuration not stated), the T/C [7] was 98 % of control, the T/C [8] was 107 % of control and the T/C [9] was 118 % of control.

In the case of O=C(Nc1cccc2ccccc12)Oc1cccc2cccnc12, the T/C [13] is reported as 89 % of control, the T/C [14] is reported as 86 % of control and the T/C [15] is reported as 89 % of control.

With O=NNc1ccc([N+](=O)[O-])cn1 the T/C (dose: 3.12 mg/kg/injection, schedule: Q01DX009 (ip), vehicle: water) was 107 % of control, the T/C [16] was 106 % of control and 96 % of control and the T/C (dose: 6.25 mg/kg/injection, schedule: Q01DX009 (ip), vehicle: water) was 96 % of control. The T/C (dose: 12.5 mg/kg/injection, schedule: Q01DX009 (ip), vehicle: saline) was 122 % of control and 123 % of control, the T/C (dose: 12.5 mg/kg/injection, schedule: Q01DX009 (ip), vehicle: water) was 102 % of control and the T/C (dose: 25.0 mg/kg/injection, schedule: Q01DX009 (ip), vehicle: water) was 105 % of control and 88 % of control. For the same compound, the T/C [17] was 176 % of control.

With O=[N+]([O-])c1cc(I)c(O)c(/C=N/NS(=O)(=O)c2ccc(Cl)cc2)c1 the T/C [4] was 101 % of control and the T/C [5] was 100 % of control.

With CNc1ccccc1CO the T/C (dose: 100.0 mg/kg/injection, schedule: Q04DX003 (ip), vehicle: other) was 95 % of control, the T/C (dose: 200.0 mg/kg/injection, schedule: Q04DX003 (ip), vehicle: other) was 95 % of control and the T/C (dose: 400.0 mg/kg/injection, schedule: Q04DX003 (ip), vehicle: other) was 90 % of control.

C=C1CCN(c2ccc(N3CCC(=C)C3=O)cc2)C1=O was tested, and the T/C (dose: 3.12 mg/kg/injection, schedule: Q01DX009 (ip), vehicle: saline + alcohol) was 88 % of control, the T/C (dose: 6.25 mg/kg/injection, schedule: Q01DX009 (ip), vehicle: saline + alcohol) was 100 % of control and the T/C (dose: 25.0 mg/kg/injection, schedule: Q01DX009 (ip), vehicle: saline + alcohol) was 88 % of control. For the same compound, the T/C (dose: 50.0 mg/kg/injection, schedule: Q01DX009 (ip), vehicle: saline + alcohol) was 88 % of control.

In the case of Cc1ncc2c(c1O)COC2C (configuration not stated), the T/C (dose: 60.0 mg/kg/injection, schedule: Q01DX005 (ip), vehicle: saline) is reported as 100 % of control, the T/C (dose: 120.0 mg/kg/injection, schedule: Q01DX005 (ip), vehicle: saline) is reported as 97 % of control and the T/C (dose: 240.0 mg/kg/injection, schedule: Q01DX005 (ip), vehicle: saline) is reported as 99 % of control.

With CCOC(=O)C(NC(=O)c1ccccc1)C(C)(C)SCc1ccccc1 (configuration not stated) the T/C [4] was 103 % of control, the T/C [5] was 101 % of control and the T/C [6] was 95 % of control.

CN(C)C(=S)C(O)(c1ccccc1)c1ccccc1 was tested, and the T/C [1] was 90 % of control, the T/C [2] was 100 % of control and the T/C [3] was 97 % of control.

In the case of O=C(OCC(Cl)(Cl)Cl)N1C2C3OC3C(C3OC32)N1C(=O)OCC(Cl)(Cl)Cl (configuration not stated), the T/C [18] is reported as 99 % of control, the T/C (dose: 100.0 mg/kg/injection, schedule: Q01DX009 (ip), vehicle: suspension in saline) is reported as 92 % of control and the T/C (dose: 200.0 mg/kg/injection, schedule: Q01DX009 (ip), vehicle: suspension in saline) is reported as 94 % of control.

In the case of Cc1ccc2nc3[nH]c(=O)[nH]c(=O)c3c(C(N)=O)c2c1, the T/C (dose: 50.0 mg/kg/injection, schedule: Q01DX005 (ip), vehicle: Klucel (hydroxypropylcellulose) (HPC)) is reported as 100 % of control, the T/C (dose: 100.0 mg/kg/injection, schedule: Q01DX005 (ip), vehicle: Klucel (hydroxypropylcellulose) (HPC)) is reported as 94 % of control and the T/C (dose: 200.0 mg/kg/injection, schedule: Q01DX005 (ip), vehicle: Klucel (hydroxypropylcellulose) (HPC)) is reported as 94 % of control.

For c1ccc(OCCC[P+](c2ccccc2)(c2ccccc2)c2ccccc2)cc1, the T/C (dose: 0.7 mg/kg/injection, schedule: Q01DX010 (ip), vehicle: carboxymethylcellulose (CMC)) was 120 % of control, the T/C (dose: 1.5 mg/kg/injection, schedule: Q01DX010 (ip), vehicle: carboxymethylcellulose (CMC)) was 110 % of control and the T/C (dose: 3.0 mg/kg/injection, schedule: Q01DX010 (ip), vehicle: carboxymethylcellulose (CMC)) was 120 % of control. For the same compound, the T/C (dose: 4.1 mg/kg/injection, schedule: Q01DX009 (ip), vehicle: saline sonified) was 113 % of control and the T/C (dose: 6.25 mg/kg/injection, schedule: Q01DX009 (ip), vehicle: saline sonified) was 118 % of control.

For CC1OC(Oc2ccc3c(=O)c(-c4ccc(O)cc4)coc3c2)C(O)C(O)C1O (configuration not stated), the T/C [10] was 103 % of control, the T/C [11] was 103 % of control and the T/C [12] was 103 % of control.

With NC(=S)/N=C(/N)NC(=O)c1ccccc1 the T/C [13] was 87 % of control, the T/C [14] was 87 % of control and the T/C [15] was 86 % of control. The T/C (dose: 200.0 mg/kg/injection, schedule: Q01DX009 (ip), vehicle: saline with Tween-80) was 110 % of control.

With CCN(CC)C(=O)C(N)Cc1ccc(OC)c(N(CCCl)CCCl)c1 (configuration not stated) the T/C [16] was 113 % of control, the T/C (dose: 6.25 mg/kg/injection, schedule: Q01DX009 (ip), vehicle: suspension in saline) was 116 % of control and the T/C (dose: 25.0 mg/kg/injection, schedule: Q01DX009 (ip), vehicle: saline) was 150 % of control. The T/C (dose: 25.0 mg/kg/injection, schedule: Q01DX009 (ip), vehicle: suspension in saline) was 150 % of control, the T/C [17] was 177 % of control and the T/C [18] was 172 % of control.
